From patent US20100137313A1 (ASTRAZENECA AB, priority 2008, published 2010) come the findings set out here.

Chain of S. pneumoniae Topoisomerase IV ATPase (ParE) (Q59961 whole entry): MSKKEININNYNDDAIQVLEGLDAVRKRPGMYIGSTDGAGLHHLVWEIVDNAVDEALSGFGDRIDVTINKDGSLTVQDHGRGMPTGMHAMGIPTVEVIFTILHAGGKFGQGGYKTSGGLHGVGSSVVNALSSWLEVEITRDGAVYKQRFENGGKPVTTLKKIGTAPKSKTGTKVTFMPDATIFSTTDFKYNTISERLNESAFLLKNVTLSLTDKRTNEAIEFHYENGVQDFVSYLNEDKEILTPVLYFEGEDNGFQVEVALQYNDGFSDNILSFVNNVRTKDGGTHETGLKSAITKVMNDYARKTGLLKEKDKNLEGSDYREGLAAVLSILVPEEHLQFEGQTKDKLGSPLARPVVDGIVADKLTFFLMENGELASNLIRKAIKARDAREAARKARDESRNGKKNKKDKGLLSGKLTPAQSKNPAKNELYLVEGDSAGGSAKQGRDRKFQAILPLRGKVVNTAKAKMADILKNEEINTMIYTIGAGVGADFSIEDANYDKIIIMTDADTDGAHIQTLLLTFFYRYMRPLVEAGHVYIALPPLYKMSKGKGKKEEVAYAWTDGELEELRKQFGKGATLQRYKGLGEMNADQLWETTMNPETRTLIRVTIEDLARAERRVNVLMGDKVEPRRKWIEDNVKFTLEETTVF

The target in this assay is S. pneumoniae Topoisomerase IV ATPase (ParE) (Streptococcus pneumoniae serotype 4, UniProt Q59961). In words: S. pneumoniae Topoisomerase IV ATPase inhibition. The format is biochemical. Conditions: values marked * are an average of two or more data points, read-out: % Inh (13 μM) of S. pneumoniae Topoisomerase IV ATPase. A digest of the protocol:
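S. pneumoniae ParE (1.25 nM) ATPase with 160 μM ATP and 5 μg/ml sheared DNA in pH 8.0 Tris, Mg2+, DTT, Brij-35; phosphate detected by malachite green/molybdate at 650 nm. Normalised to 2% DMSO (0%) and 20 μM EDTA (100%); IC50 from 10 concentrations.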
`Fc1ccc(Nc2ncc(-c3cncnc3)c(NCCc3cccnc3)n2)cc1Cl` [Example 45, N^2-(3-chloro-4-fluorophenyl)-N^4-(2-pyridin-3-ylethyl)-5-pyrimidin-5-ylpyrimidine-2,4-diamine]: the inhibition at 13 µM worked out at 81.9%.

Consider `CCOC(=O)/C=C/c1cccc(-c2cnc(Nc3ccc(F)c(Cl)c3)nc2N2CCCCC2)c1` [Example 171, (E)-ethyl 3-(3-(2-(3-chloro-4-fluorophenylamino)-4-(piperidin-1-yl)pyrimidin-5-yl)phenyl)acrylate], for which the inhibition at 13 µM worked out at 3.62%.

`O=C(O)c1cncc(-c2cnc(Nc3ccc(F)c(Cl)c3)nc2-n2ccc(-c3ccsc3)n2)c1` [Example 533, 5-{2-[(3-chloro-4-fluorophenyl)amino]-4-[3-(thiophen-3-yl)-1H-pyrazol-1-yl]pyrimidin-5-yl}pyridine-3-carboxylic acid]: the inhibition at 13 µM is 100%.

Turning to `COc1cc(Nc2ncc(-c3cnc(OC)c(C(=O)O)c3)c(-n3nc(C(F)(F)F)nc3C)n2)cc(OC)c1` [Example 1144, 5-(2-(3,5-dimethoxyphenylamino)-4-(5-methyl-3-(trifluoromethyl)-1H-1,2,4-triazol-1-yl)pyrimidin-5-yl)-2-methoxynicotinic acid], the inhibition at 13 µM is 100%.

Regarding `CCNC(=O)c1cncc(-c2cnc(Nc3ccc(F)c(Cl)c3)nc2-n2ccc(C(F)(F)F)n2)c1` [Example 1125, 5-[2-[(3-chloro-4-fluorophenyl)amino]-4-[3-(trifluoromethyl)pyrazol-1-yl]pyrimidin-5-yl]-N-ethylpyridine-3-carboxamide], the inhibition at 13 µM was found to be 51%.

With `Cc1cc(C(F)(F)F)nn1-c1nc(Nc2ccc(F)c(Cl)c2)ncc1-c1cc(C(=O)O)c(=O)n(CCS(C)(=O)=O)c1` [Example 1093, 5-(2-(3-Chloro-4-fluorophenylamino)-4-(5-methyl-3-(trifluoromethyl)-1H-pyrazol-1-yl)pyrimidin-5-yl)-1-(2-(methylsulfonyl)ethyl)-2-oxo-1,2-dihydropyridine-3-carboxylic acid], the inhibition at 13 µM was 100%.

`COc1ncc(-c2cnc(Nc3ccc(F)c(Cl)c3)nc2N2CCOCC2)cn1` [Example 77, N-(3-chloro-4-fluorophenyl)-2′-methoxy-4-morpholin-5,5′-bipyrimidin-2-amine]: the inhibition at 13 µM turned out to be 83%.

On to `Cc1cc(C(F)(F)F)nn1-c1nc(Nc2ccc(F)c(Cl)c2)ncc1-c1cnc(OCCS(C)(=O)=O)c(C(=O)O)c1` [Example 956, 5-(2-(3-chloro-4-fluorophenylamino)-4-(5-methyl-3-(trifluoromethyl)-1H-pyrazol-1-yl)pyrimidin-5-yl)-2-(2-(methylsulfonyl)ethoxy)nicotinic acid], for which the inhibition at 13 µM was 100%.

With `Cc1cc(C(F)(F)F)nn1-c1nc(Nc2ccc(F)c(Cl)c2)ncc1-c1cncc(C(=O)NCCN2CCN(C)CC2)c1` [Example 928, 5-(2-(3-chloro-4-fluorophenylamino)-4-(5-methyl-3-(trifluoromethyl)-1H-pyrazol-1-yl)pyrimidin-5-yl)-N-(2-(4-methylpiperazin-1-yl)ethyl)nicotinamide], the inhibition at 13 µM was determined as 85%.

`COc1ccc(-c2cnc(Nc3ccc(F)c(Cl)c3)nc2NCCCN(C)C)cc1` [Example 25, N^2-(3-chloro-4-fluorophenyl)-N^4-[3-(dimethylamino)propyl]-5-(4-methoxyphenyl)-pyrimidine-2,4-diamine]: the inhibition at 13 µM is 90.5%.

For `Cc1nccn1-c1nc(Nc2ccc(F)c(Cl)c2)ncc1-c1cccc(/C=C/C(=O)O)c1` [Example 314, (2E)-3-(3-{2-[(3-chloro-4-fluorophenyl)amino]-4-(2-methyl-1H-imidazol-1-yl)pyrimidin-5-yl}phenyl)prop-2-enoic acid], the inhibition at 13 µM was 83.4%.

Turning to `COC(=O)[C@@H](C)Nc1nc(Nc2ccc(F)c(Cl)c2)ncc1-c1cncnc1` [Example 56, methyl (2R)-2-[[2-[(3-chloro-4-fluorophenyl)amino]-5-pyrimidin-5-ylpyrimidin-4-yl]amino]propanoate], the inhibition at 13 µM is 46.3%.

Turning to `COCCOc1cccc(Nc2ncc(-c3cccc(/C=C/C(=O)O)c3)c(N3CCOCC3)n2)c1` [Example 457], the inhibition at 13 µM is 28%.

For `Cc1cc(C(F)(F)F)nn1-c1nc(Nc2ccc(F)c(Cl)c2)ncc1-c1cnc(OCCN2CCOCC2)c(C(=O)O)c1` [Example 1141, 5-(2-(3-chloro-4-fluorophenylamino)-4-(5-methyl-3-(trifluoromethyl)-1H-pyrazol-1-yl)pyrimidin-5-yl)-2-(2-morpholinoethoxy)nicotinic acid], the inhibition at 13 µM amounted to 100%.

For `Cn1cc(CNc2nc(Nc3ccc(F)c(Cl)c3)ncc2-c2cncc(C(=O)O)c2)cn1` [Example 282, 5-(2-(3-chloro-4-fluorophenylamino)-4-((1-methyl-1H-pyrazol-4-yl)methylamino)pyrimidin-5-yl)nicotinic acid], the inhibition at 13 µM turned out to be 117%.

Regarding `COc1cc(C)cc(Nc2ncc(-c3cnc(OC)c(C(=O)NS(C)(=O)=O)c3)c(-n3nc(C(F)(F)F)cc3C)n2)c1` [Example 857, 2-methoxy-5-{2-[(3-methoxy-5-methylphenyl)amino]-4-[5-methyl-3-(trifluoromethyl)-1H-pyrazol-1-yl]pyrimidin-5-yl}-N-(methylsulfonyl)pyridine-3-carboxamide], the inhibition at 13 µM was determined as 100%.

For the compound `CCOC(=O)c1ccc(-c2cnc(Nc3ccc(F)c(Cl)c3)nc2NCCCN(C)C)cc1` [Example 6, Ethyl 4-(2-(3-chloro-4-fluorophenylamino)-4-(3-(dimethylamino)propylamino)pyrimidin-5-yl)benzoate], the inhibition at 13 µM stood at 102%.

Consider `CCOC(=O)c1cncc(-c2cnc(Nc3ccc(F)c(Cl)c3)nc2N2CCCCC2)c1` [Example 152, ethyl 5-(2-(3-chloro-4-fluorophenylamino)-4-(piperidin-1-yl)pyrimidin-5-yl)nicotinate], for which the inhibition at 13 µM stood at 0.54%.

Consider `O=C(O)/C=C/c1cccc(-c2cnc(Nc3cc(F)cc(Cl)c3)nc2N2CCOCC2)c1` [Example 409, (E)-3-{3-[2-(3-Chloro-5-fluoro-phenylamino)-4-morpholin-4-yl-pyrimidin-5-yl]-phenyl}-acrylic acid], for which the inhibition at 13 µM stood at 77%.

On to `O=C(O)/C=C/c1cccc(-c2cnc(Nc3ccc4c(c3)CCC4)nc2-n2ccc(C(F)(F)F)n2)c1` [Example 655, (2E)-3-(3-{2-(2,3-dihydro-1H-inden-5-ylamino)-4-[3-(trifluoromethyl)-1H-pyrazol-1-yl]pyrimidin-5-yl}phenyl)prop-2-enoic acid], for which the inhibition at 13 µM turned out to be 89%.

For `Fc1ccc(Nc2ncc(-c3cncnc3)c(-n3cnc(C(F)(F)F)c3)n2)cc1Cl` [Example 84, N-(3-chloro-4-fluorophenyl)-4-[4-(trifluoromethyl)-1H-imidazol-1-yl]-5,5′-bipyrimidin-2-amine], the inhibition at 13 µM came to 79.6%.

Turning to `O=C(O)/C=C/c1cccc(-c2cnc(Nc3ccc(F)c(Cl)c3)nc2NCCn2cccn2)c1` [Example 267, (2E)-3-[3-(2-[(3-chloro-4-fluorophenyl)amino]-4-{[2-(1H-pyrazol-1-yl)ethyl]amino}pyrimidin-5-yl)phenyl]prop-2-enoic acid], the inhibition at 13 µM came out at 87.3%.

For `CS(=O)(=O)CCn1cc(-c2cnc(Nc3ccc(F)c(Cl)c3)nc2-n2ccc(C(F)(F)F)n2)cc(C(=O)O)c1=O` [Example 1091, 5-(2-(3-Chloro-4-fluorophenylamino)-4-(3-(trifluoromethyl)-1H-pyrazol-1-yl)pyrimidin-5-yl)-1-(2-(methylsulfonyl)ethyl)-2-oxo-1,2-dihydropyridine-3-carboxylic acid], the inhibition at 13 µM was 100%.

With `COc1cc(F)cc(Nc2ncc(-c3cc(C(=O)O)c(=O)n(C)c3)c(-n3ccc(C(F)(F)F)n3)n2)c1` [Example 920, 5-(2-(3-fluoro-5-methoxyphenylamino)-4-(3-(trifluoromethyl)-1H-pyrazol-1-yl)pyrimidin-5-yl)-1-methyl-2-oxo-1,2-dihydropyridine-3-carboxylic acid], the inhibition at 13 µM is 100%.

Turning to `O=C(O)Cn1cc(-c2cnc(Nc3ccc(F)c(Cl)c3)nc2N2CCOCC2)cn1` [Example 485, (4-{2-[(3-chloro-4-fluorophenyl)amino]-4-(morpholin-4-yl)pyrimidin-5-yl}-1H-pyrazol-1-yl)acetic acid], the inhibition at 13 µM was 85%.

In the case of `CCOC(=O)c1cncc(-c2cnc(Nc3ccc(F)c(Cl)c3)nc2NCCOC(C)C)c1` [Example 109, ethyl 5-[2-[(3-chloro-4-fluorophenyl)amino]-4-(2-propan-2-yloxyethylamino)pyrimidin-5-yl]pyridine-3-carboxylate], the inhibition at 13 µM worked out at 52.4%.

Take `O=C(O)CCC(=O)Nc1cccc(-c2cnc(Nc3ccc(F)c(Cl)c3)nc2N2CCOCC2)c1` [Example 482, 4-[(3-{2-[(3-chloro-4-fluorophenyl)amino]-4-(morpholin-4-yl)pyrimidin-5-yl}phenyl)amino]-4-oxobutanoic acid]: the inhibition at 13 µM worked out at 99%.

On to `CC1CN(c2nc(Nc3ccc(F)c(Cl)c3)ncc2-c2cncc(C(=O)O)c2)CC(C)O1` (stereo not drawn) [Example 272, 5-(2-(3-chloro-4-fluorophenylamino)-4-(2,6-dimethylmorpholino)-pyrimidin-5-yl)nicotinic acid], for which the inhibition at 13 µM was 81.1%.

For `COC(=O)c1cc(-c2cnc(Nc3ccc(F)c(Cl)c3)nc2-n2nc(C(F)(F)F)cc2C)cnc1OC` [Example 1008, Methyl 5-(2-(3-chloro-4-fluorophenylamino)-4-(5-methyl-3-(trifluoromethyl)-1H-pyrazol-1-yl)pyrimidin-5-yl)-2-methoxynicotinate], the inhibition at 13 µM turned out to be 83%.

As for `COCCCNc1nc(Nc2ccc(F)c(Cl)c2)ncc1-c1ccc2cc(C(=O)OC)[nH]c2c1` [Example 1051, methyl 6-(2-(3-chloro-4-fluorophenylamino)-4-(3-methoxypropylamino)pyrimidin-5-yl)-1H-indole-2-carboxylate], the inhibition at 13 µM is 0%.
